Laboratory results: patent publication US12233066B2, “Combinations of inhibitors of influenza virus replication” (COCRYSTAL PHARMA, INC., priority 2018, dated 2025)
Read-outs that look alike come from different tables or passages of the source.

Experiments:
[1] = tested on: Influenza virus A/PR/8/34 (H1N1); test: Cytopathic effect (CPE) assay of two-drug combinations in MDCK cells, MacSynergy II analysis; type: cell-based
influenza B = test: Antiviral activity of the combinations against influenza B; type: cell-based; conditions: combination with Compound 1
[2] = combination with Compound 1, A/PR/8/34 (H1N1) in MDCK cells, 0.125-8x EC50 checkerboard, MacSynergy II

Row | SMILES | Antagonism volume (95%) [1, 2] | Synergy volume (95%) [1, 2] | Combination effect ([1]; combination with Compound 1, A/PR/8/34 (H1N1) in MDCK cells, MacSynergy II) | Synergistic effect in influenza antiviral CPE assays ([1]; combination with Compound 1, IFV A/PR/8/34 (H1N1)) | Antiviral activity against influenza B (influenza B) | Synergy volume (95%) [1] | Combination effect [1] | Synergistic effect in influenza antiviral CPE assays [1]
1 | CCC(CC)O[C@@H]1C=C(C(=O)O)C[C@H](N)[C@H]1NC(C)=O [Oseltamivir acid, oseltamivir acid] | −9.19 | 269.37 | Strong synergism | strong synergistic effect | exhibit antiviral activity |  |  | 
2 | O=C1c2c(O)c(=O)ccn2N([C@@H]2c3ccccc3SCc3c2ccc(F)c3F)[C@@H]2COCCN12 [Baloxavir, baloxavir] | −12.28 |  |  |  |  | 285.84 |  | 
3 | NC(=O)c1nc(F)c[nH]c1=O [Favipiravir, favipiravir] | −3.15 |  |  |  | exhibit antiviral activity | 413.85 | Strong synergism | strong synergistic effect
